Results published in patent publication US12110276B2 (Genentech, Inc., priority 2021, dated 2024).
Structures can show the parent of a compound that is named as a salt.

How the values were obtained:
TEAD3 = TEAD3 (Homo sapiens (Human), UniProt Q99594); experiment: TR-FRET lipid pocket probe competition assay (Lipid HTRF), TEAD3; assay type: binding; conditions: 4 hours pre-incubation; read-out: Lipid HTRF TEAD3 IC50
Procedure: (§1) His-tagged TEAD proteins are pre-incubated with TEAD project compounds for 30 minutes or 4 hours at room temperature. Biotinylated lipid pocket probes are then added to the TEAD/Compound mixture and incubated for 60 minutes at room temperature. The lipid pocket probe competes with the test compound for the TEAD lipid pocket until equilibrium is reached. After 60 minutes, Europium labelled anti-His (Perkin Elmer #AD0110) and XL665 labelled streptavidin (CIS Bio 610SAXAC) are added to the TEAD/test compound/lipid pocket mixture and incubated for 30 minutes or 4 hours. […] If a TEAD lipid pocket binder such as binds and displaces the lipid pocket probe, the disruption of the TEAD:probe interaction results in a decrease in TR-FRET signal. The potency of compounds as TEAD lipid pocket binders is determined by IC50 value generated using a non-linear 4 parameter curve fit.

TEAD4 = TEAD4 (Homo sapiens (Human), UniProt Q15561); experiment: TR-FRET lipid pocket probe competition assay (Lipid HTRF), TEAD4; assay type: binding; conditions: 4 hours pre-incubation; read-out: Lipid HTRF TEAD4 IC50;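 also: His-tagged TEAD4 with biotinylated lipid-pocket probe, read by Europium anti-His and XL665 streptavidin, where probe displacement lowers the TR-FRET signal, IC50 from a four-parameter fit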
TEAD4, sequence (Q15561 whole entry, species assumed): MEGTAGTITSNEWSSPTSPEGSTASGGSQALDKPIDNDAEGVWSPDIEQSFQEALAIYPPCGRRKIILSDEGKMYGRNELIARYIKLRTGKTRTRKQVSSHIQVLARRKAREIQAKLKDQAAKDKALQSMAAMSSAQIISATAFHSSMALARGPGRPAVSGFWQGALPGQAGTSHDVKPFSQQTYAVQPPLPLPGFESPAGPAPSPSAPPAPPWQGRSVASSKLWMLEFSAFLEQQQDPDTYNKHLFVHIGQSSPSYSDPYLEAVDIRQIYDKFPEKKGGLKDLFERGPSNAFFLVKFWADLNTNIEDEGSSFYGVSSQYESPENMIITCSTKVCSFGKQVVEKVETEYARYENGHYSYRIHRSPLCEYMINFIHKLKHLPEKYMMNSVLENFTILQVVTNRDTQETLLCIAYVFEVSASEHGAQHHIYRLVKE

TEAD1 = TEAD1 (Homo sapiens (Human), UniProt P28347); experiment: TR-FRET lipid pocket probe competition assay (Lipid HTRF), TEAD1; assay type: binding; conditions: 4 hours pre-incubation; read-out: Lipid HTRF TEAD1 IC50;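 also: His-tagged TEAD1 with biotinylated probe, detected via Europium anti-His and XL665 streptavidin, probe displacement lowers TR-FRET signal, IC50 from four-parameter nonlinear fit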
TEAD1, sequence (P28347 whole entry, species assumed): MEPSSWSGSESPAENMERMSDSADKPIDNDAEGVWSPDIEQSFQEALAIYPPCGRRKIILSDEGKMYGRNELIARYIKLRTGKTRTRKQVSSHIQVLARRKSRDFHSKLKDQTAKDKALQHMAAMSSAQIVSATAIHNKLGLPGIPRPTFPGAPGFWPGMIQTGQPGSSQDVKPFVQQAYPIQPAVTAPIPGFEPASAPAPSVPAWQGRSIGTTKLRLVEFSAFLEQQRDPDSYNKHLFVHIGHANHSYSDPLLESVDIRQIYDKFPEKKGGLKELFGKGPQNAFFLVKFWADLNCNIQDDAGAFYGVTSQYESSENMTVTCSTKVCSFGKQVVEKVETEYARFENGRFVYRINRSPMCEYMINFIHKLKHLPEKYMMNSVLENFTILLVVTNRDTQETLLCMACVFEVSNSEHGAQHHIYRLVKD
Procedure: as §1

TEAD2 = TEAD2 (Homo sapiens (Human), UniProt Q15562);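 also: TR-FRET competition assay with His-tagged TEAD protein and a biotinylated lipid pocket probe, compound pre-incubated 30 min or 4 h at room temperature, displacement lowers signal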
TEAD2, sequence (Q15562 whole entry, species assumed): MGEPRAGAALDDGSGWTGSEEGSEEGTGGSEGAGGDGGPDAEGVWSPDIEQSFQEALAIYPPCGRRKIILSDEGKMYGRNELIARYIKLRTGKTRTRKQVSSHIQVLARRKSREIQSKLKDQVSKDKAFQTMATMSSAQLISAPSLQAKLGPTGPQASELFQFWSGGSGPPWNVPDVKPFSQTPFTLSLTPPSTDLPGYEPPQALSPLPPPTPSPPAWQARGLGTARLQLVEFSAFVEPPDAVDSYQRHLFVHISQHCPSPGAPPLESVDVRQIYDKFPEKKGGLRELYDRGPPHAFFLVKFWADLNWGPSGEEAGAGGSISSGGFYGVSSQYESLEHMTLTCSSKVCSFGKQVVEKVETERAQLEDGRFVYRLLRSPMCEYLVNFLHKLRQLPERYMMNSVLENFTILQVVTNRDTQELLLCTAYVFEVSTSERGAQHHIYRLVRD

TEAD3, sequence (Q99594 whole entry, species assumed): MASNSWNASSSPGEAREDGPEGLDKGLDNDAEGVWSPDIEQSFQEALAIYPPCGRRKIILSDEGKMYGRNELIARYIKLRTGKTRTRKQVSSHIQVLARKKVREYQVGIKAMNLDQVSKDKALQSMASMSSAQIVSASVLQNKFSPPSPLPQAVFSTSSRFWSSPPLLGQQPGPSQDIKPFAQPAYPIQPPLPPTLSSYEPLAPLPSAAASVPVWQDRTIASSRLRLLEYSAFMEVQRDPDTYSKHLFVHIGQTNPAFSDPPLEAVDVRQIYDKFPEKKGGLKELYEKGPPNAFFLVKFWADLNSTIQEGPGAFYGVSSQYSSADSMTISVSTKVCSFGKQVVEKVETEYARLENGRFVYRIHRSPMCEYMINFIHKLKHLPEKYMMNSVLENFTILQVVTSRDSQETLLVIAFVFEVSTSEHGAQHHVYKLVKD

| Structure (SMILES) | IC50 (TEAD3) | IC50 (TEAD4) | IC50 (TEAD1) | IC50 (TEAD2) |
| --- | --- | --- | --- | --- |
| C=C(F)C(=O)N1CC(c2nn(-c3ccc(OC(F)(F)F)cc3)c3nccc(-c4cnn(CCO)c4)c23)C1 [Compound 28, 2-Fluoro-1-(3-(4-(1-(2-hydroxyethyl)-1H-pyrazol-4-yl)-1-(4-(trifluoromethoxy)phenyl)-1H-pyrazolo[3,4-b]pyridin-3-yl)azetidin-1-yl)prop-2-en-1-one] | 5700 nM | 33 nM | 23 nM | 220 nM |
| C=CC(=O)NCc1nn(-c2ccc(OC(F)(F)F)cc2)c2cccnc12 [Compound 187, N-((1-(4-(trifluoromethoxy)phenyl)-1H-pyrazolo[4,3-b]pyridin-3-yl)methyl)acrylamide] | 950 nM | 55 nM | 91 nM | 1200 nM |
| O=C(C1=CCCC1)N1CC(c2nn(-c3ccc(OC(F)(F)F)cc3)c3nccc(CO)c23)C1 [Compound 150, Cyclopent-1-en-1-yl(3-(4-(hydroxymethyl)-1-(4-(trifluoromethoxy)phenyl)-1H-pyrazolo[3,4-b]pyridin-3-yl)azetidin-1-yl)methanone] | 50000 nM | 460 nM | 560 nM | 1200 nM |
| C=CC(=O)NCc1nn(-c2ccc(OC(F)(F)F)cc2)c2nccc(N3CC([C@@H](C)O)C3)c12 (stereo in doubt) [Compound 123, N-((4-(3-(1-hydroxyethyl)azetidin-1-yl)-1-(4-(trifluoromethoxy)phenyl)-1H-pyrazolo[3,4-b]pyridin-3-yl)methyl)acrylamide] | – | – | – | 180 nM |
| C=C(F)C(=O)N1CC(c2nn(-c3ccc(OC(F)(F)F)cc3)c3nccc(N4CC([C@H](O)CO)C4)c23)C1 [Compound 141, (S)-1-(3-(4-(3-(1,2-dihydroxyethyl)azetidin-1-yl)-1-(4-(trifluoromethoxy)phenyl)-1H-pyrazolo[3,4-b]pyridin-3-yl)azetidin-1-yl)-2-fluoroprop-2-en-1-one] | 2000 nM | 6.9 nM | 27 nM | 54 nM |
| C=CC(=O)NCc1nn(-c2ccc(OC(F)(F)F)cc2)c2nccc(CN(C)C)c12 [Compound 105, N-((4-((dimethylamino)methyl)-1-(4-(trifluoromethoxy)phenyl)-1H-pyrazolo[3,4-b]pyridin-3-yl)methyl)acrylamide] | 50000 nM | 450 nM | 1000 nM | 620 nM |
| CC#CC(=O)NCc1nn(-c2ccc(OC(F)(F)F)cc2)c2nccc(CO)c12 [Compound 98, N-((4-(Hydroxymethyl)-1-(4-(trifluoromethoxy)phenyl)-1H-pyrazolo[3,4-b]pyridin-3-yl)methyl)but-2-ynamide] | 460 nM | – | 32 nM | 75 nM |
| O=C(/C=C/CO)N1CC(c2nn(-c3ccc(OC(F)(F)F)cc3)c3nccc(CO)c23)C1 [Compound 94, (E)-4-Hydroxy-1-(3-(4-(hydroxymethyl)-1-(4-(trifluoromethoxy)phenyl)-1H-pyrazolo[3,4-b]pyridin-3-yl)azetidin-1-yl)but-2-en-1-one] | – | – | 15 nM | 29 nM |
| O=C(/C=C/CF)NCc1nn(-c2ccc(OC(F)(F)F)cc2)c2nccc(CO)c12 [Compound 121, (E)-4-Fluoro-N-((4-(hydroxymethyl)-1-(4-(trifluoromethoxy)phenyl)-1H-pyrazolo[3,4-b]pyridin-3-yl)methyl)but-2-enamide] | 350 nM | – | 21 nM | 68 nM |
| C=C(C)C(=O)N1CC(c2nn(-c3ccc(OC(F)(F)F)cc3)c3nccc(CO)c23)C1 [Compound 22, 1-(3-(4-(Hydroxymethyl)-1-(4-(trifluoromethoxy)phenyl)-1H-pyrazolo[3,4-b]pyridin-3-yl)azetidin-1-yl)-2-methylprop-2-en-1-one] | 300 nM | – | 33 nM | 250 nM |
| C/C=C/S(=O)(=O)N1CC(c2nn(-c3ccc(OC(F)(F)F)cc3)c3nccc([C@@H](O)CO)c23)C1 [Compound 162, (R,E)-1-(3-(1-(prop-1-en-1-ylsulfonyl)azetidin-3-yl)-1-(4-(trifluoromethoxy)phenyl)-1H-pyrazolo[3,4-b]pyridin-4-yl)ethane-1,2-diol] | – | – | – | 10 nM |
| C=CC(=O)NCc1nn(-c2ccc(OC(F)(F)F)cc2)c2nccc(N(C)[C@H]3C[C@H](O)C3)c12 [Compound 90, N-((4-((3-hydroxycyclobutyl)(methyl)amino)-1-(4-(trifluoromethoxy)phenyl)-1H-pyrazolo[3,4-b]pyridin-3-yl)methyl)acrylamide] | 3700 nM | 9.9 nM | – | – |
| O=C(C1=CCC1)N1CC(c2nn(-c3ccc(OC(F)(F)F)cc3)c3nccc([C@@H](O)CO)c23)C1 [Compound 157, (R)-Cyclobut-1-en-1-yl(3-(4-(1,2-dihydroxyethyl)-1-(4-(trifluoromethoxy)phenyl)-1H-pyrazolo[3,4-b]pyridin-3-yl)azetidin-1-yl)methanone] | 17 nM | – | – | 5.7 nM |
| C=CC(=O)NCc1nn(-c2ccc(OC(F)(F)F)cc2)c2nccc([C@H](O)COC(=O)CN)c12 [Compound 145, (S)-2-(3-(Acrylamidomethyl)-1-(4-(trifluoromethoxy)phenyl)-1H-pyrazolo[3,4-b]pyridin-4-yl)-2-hydroxyethyl 2-aminoacetate formate] | – | 49 nM | 140 nM | 71 nM |
| C=CC(=O)NCc1nn(-c2ccc(OC(F)(F)F)cc2)c2nccc([C@H](O)COC(C)=O)c12 [Compound 146, (S)-2-(3-(Acrylamidomethyl)-1-(4-(trifluoromethoxy)phenyl)-1H-pyrazolo[3,4-b]pyridin-4-yl)-2-hydroxyethyl acetate] | – | 28 nM | 40 nM | 66 nM |
| C=CC(=O)NCc1nn(-c2ccc(OC(F)(F)F)cc2)c2nccc(N3CC([C@H](C)O)C3)c12 (stereo in doubt) [Compound 138, N-((4-(3-(1-hydroxyethyl)azetidin-1-yl)-1-(4-(trifluoromethoxy)phenyl)-1H-pyrazolo[3,4-b]pyridin-3-yl)methyl)acrylamide] | – | – | – | 290 nM |
| O=C(N1CC(c2nn(-c3ccc(OC(F)(F)F)cc3)c3nccc(CO)c23)C1)C12CC1C2 (centres unmarked) [Compound 153, Bicyclo[1.1.0]butan-1-yl(3-(4-(hydroxymethyl)-1-(4-(trifluoromethoxy)phenyl)-1H-pyrazolo[3,4-b]pyridin-3-yl)azetidin-1-yl)methanone] | 50000 nM | – | 580 nM | 290 nM |
| C=CC(=O)NCc1nn(-c2ccc(OC(F)(F)F)cc2)c2nccc([C@H](O)COP(=O)(O)O)c12 [Compound 147, (S)-2-(3-(Acrylamidomethyl)-1-(4-(trifluoromethoxy)phenyl)-1H-pyrazolo[3,4-b]pyridin-4-yl)-2-hydroxyethyl dihydrogen phosphate] | – | 36000 nM | – | – |
| O=C(/C=C/CO)N1CC(c2nn(-c3ccc(OC(F)(F)F)cc3)c3nccc([C@H](O)CO)c23)C1 [Compound 108, (S,E)-1-(3-(4-(1,2-Dihydroxyethyl)-1-(4-(trifluoromethoxy)phenyl)-1H-pyrazolo[3,4-b]pyridin-3-yl)azetidin-1-yl)-4-hydroxybut-2-en-1-one] | 140 nM | – | – | 120 nM |
| O=C(NCc1nn(-c2ccc(OC(F)(F)F)cc2)c2nccc(CO)c12)C1=CCOC1 [Compound 149, N-((4-(Hydroxymethyl)-1-(4-(trifluoromethoxy)phenyl)-1H-pyrazolo[3,4-b]pyridin-3-yl)methyl)-2,5-dihydrofuran-3-carboxamide] | – | – | 910 nM | – |
| C=CC(=O)NCc1nn(-c2ccc(OC(F)(F)F)cc2)c2nccc(N(C)[C@H]3C[C@@H](O)C3)c12 [Compound 117, N-((4-((3-hydroxycyclobutyl)(methyl)amino)-1-(4-(trifluoromethoxy)phenyl)-1H-pyrazolo[3,4-b]pyridin-3-yl)methyl)acrylamide] | 16000 nM | 33 nM | – | – |
| O=C(C1=CCC1)N1CC(c2nn(-c3ccc(OC(F)(F)F)cc3)c3nccc([C@H](O)CO)c23)C1 [Compound 72, (S)-Cyclobut-1-en-1-yl(3-(4-(1,2-dihydroxyethyl)-1-(4-(trifluoromethoxy)phenyl)-1H-pyrazolo[3,4-b]pyridin-3-yl)azetidin-1-yl)methanone] | 19 nM | – | – | 7.5 nM |
| O=C(/C=C/CO)N1CC(c2nn(-c3ccc(OC(F)(F)F)cc3)c3nccc([C@@H](O)CO)c23)C1 [Compound 95, (R,E)-1-(3-(4-(1,2-dihydroxyethyl)-1-(4-(trifluoromethoxy)phenyl)-1H-pyrazolo[3,4-b]pyridin-3-yl)azetidin-1-yl)-4-hydroxybut-2-en-1-one] | 92 nM | – | – | 27 nM |
| C/C=C/S(=O)(=O)N1CC(c2nn(-c3ccc(OC(F)(F)F)cc3)c3nccc([C@H](O)CO)c23)C1 [Compound 161, (S,E)-1-(3-(1-(Prop-1-en-1-ylsulfonyl)azetidin-3-yl)-1-(4-(trifluoromethoxy)phenyl)-1H-pyrazolo[3,4-b]pyridin-4-yl)ethane-1,2-diol] | – | – | – | 3.4 nM |
| O=C(C1=CCC1)N1CC(c2nn(-c3ccc(OC(F)(F)F)cc3)c3nccc([C@@H](O)CO)c23)C1 [Compound 115, (R)-cyclobut-1-en-1-yl(3-(4-(1,2-dihydroxyethyl)-1-(4-(trifluoromethoxy)phenyl)-1H-pyrazolo[3,4-b]pyridin-3-yl)azetidin-1-yl)methanone] | 11 nM | – | – | 6 nM |
| C/C=C/C(=O)NCc1nn(-c2ccc(OC(F)(F)F)cc2)c2nccc(CO)c12 [Compound 61, (E)-N-((4-(Hydroxymethyl)-1-(4-(trifluoromethoxy)phenyl)-1H-pyrazolo[3,4-b]pyridin-3-yl)methyl)but-2-enamide] | 50000 nM | – | – | 2300 nM |
